The numbers were not newly measured in patent US7452892B2, “Triazolopyrimidine cannabinoid receptor 1 antagonists” (Bristol-Myers Squibb Company, priority 2005, dated 2008), which cites them from elsewhere.

The structures appear in SMILES notation.

For data set [1] the following is noted: 16 week trial period.
For data set [2] the following is noted: chronic administration for two weeks.

As to `Cc1c(C(=O)NN2CCCCC2)nn(-c2ccc(Cl)cc2Cl)c1-c1ccc(Cl)cc1` [SR-141716], in data set [1], the “body weight in human subjects” value is recorded as “dose-dependently reduced body weight”.
Consider `Cc1c(C(=O)NN2CCCCC2)nn(-c2ccc(Cl)cc2Cl)c1-c1ccc(I)cc1` [AM-251], for which the body weight result in data set [2] was “substantial body weight reduction”.
